From patent US10299475B2, “Pesticide” (ISHIHARA SANGYO KAISHA, LTD., priority 2013, dated 2019)

What follows are compounds tested on Haemaphysalis longicornis (larvae) (assay: Test for examining effect on Haemaphysalis longicornis (larvae), coated vial contact test). Conditions: 100 ppm solution coated on plastic vial, 20 larvae, 24 hours after contact, 25° C., constant dark, relative humidity 80-100%.
Format: in vivo
Description: Test for Examining Effect on Haemaphysalis longicornis (larvae)
Work on `CC(C)CNC(=O)c1ccc(CCOc2cccc(Br)c2)cc1` [1-9, N-isobutyl-4-(2-(3-bromophenoxy)ethyl)benzamide] yielded a mortality at 100 ppm of at least 90%. `CC(C)CNC(=O)c1ccc(CCOc2ccc(Cl)c(-c3ccc(Cl)cc3)c2)cc1` [4-115, N-isobutyl-4-(2-(4-chloro-3-(4-chlorophenyl)phenoxy)ethyl)benzamide] gave a mortality at 100 ppm of at least 90%. Work on `CC(C)CNC(=O)c1ccc(CCOc2ccc(OC(F)(F)F)cc2)cc1` [1-25, N-isobutyl-4-(2-(4-(trifluoromethoxy)phenoxy)ethyl)benzamide] yielded a mortality at 100 ppm of at least 90%. Compound `CC(C)CNC(=O)c1ccc(CCOc2cccc(OC(F)(F)F)c2)cc1` [1-24, N-isobutyl-4-(2-(3-(trifluoromethoxy)phenoxy)ethyl)benzamide] has a mortality at 100 ppm of at least 90%. Compound `CC(C)CNC(=O)c1ccc(CCOc2ccc(F)c(-c3ccccc3)c2)cc1` [4-6, N-isobutyl-4-(2-(4-fluoro-3-phenylphenoxy)ethyl)benzamide] has a mortality at 100 ppm of at least 90%. `CC(C)CNC(=O)c1ccc(CCOc2cccc(-c3ccc(Cl)cc3Cl)c2)cc1` [4-187, N-isobutyl-4-(2-(3-(2,4-dichlorophenyl)phenoxy)ethyl)benzamide] was tested, and the mortality at 100 ppm was at least 90%. Compound `CC(C)CNC(=O)c1ccc(CCOc2ccc(Cl)c(I)c2)cc1` [1-326, N-isobutyl-4-(2-(4-chloro-3-iodophenoxy)ethyl)benzamide] has a mortality at 100 ppm of at least 90%.
